Results on 21 compounds are retold here after patent publication US20070213305A1, “N-alkyl-N-aryl-thienopyrimidin-4-amines and analogs as activators of caspases and inducers of apoptosis and the use thereof” (Cytovia, Inc., priority 2005, published 2007).

Where a name gives a salt, the structure may show the parent alone. Read-outs that look alike come from different tables or passages of the source.

Holding throughout (type): cell-based
For experiment [1], the system named is human lung cancer cell line H1299. Kind of experiment: Caspase cascade activation (DEVD-R110 fluorogenic substrate) in H1299 cells. The conditions noted are these: read-out: Caspase Activation Potency EC50 (nM) (24 h) H1299. As for the experimental part:
(§1) Human breast cancer cell line T-47D, human lung cancer cell line H1299 and human hepatocellular carcinoma cell line SNU398 were grown according to media component mixtures designated by American Type Culture Collection+10% FCS (Invitrogen Corporation), in a 5% CO2-95% humidity incubator at 37° C. T-47D and H1299 cells were maintained at a cell density between 50 and 80% confluency at a cell density of 0.1 to 0.6×10^6 cells/mL. Cells were harvested at 600×g and resuspended at 0.65×10^6 cells/mL into appropriate media+10% FCS. An aliquot of 22.5 μL of cells was added to a well of a 384-well microtiter plate containing 2.5 μL of a 10% DMSO in RPMI-1640 media solution containing 0.16 to 100 μM of N-(4-methoxyphenyl)-N, 2-dimethylthieno[3,2-d]pyrimidin-4-amine or other test compound (0.016 to 10 μM final). An aliquot of 22.5 μL of cells was added to a well of a 384-well microtiter plate containing 2.5 μL of a 10 % DMSO in RPMI-1640 media solution without test compound as the control sample. The samples were mixed by agitation and then incubated at 37° C. for 24 h or 48 h in a 5% CO2-95% humidity incubator. After incubation, the samples were removed from the incubator and 25 μL of a solution containing 14 μM of N-(Ac-DEVD)-N′-ethoxycarbonyl-R110 (SEQ ID No.:1) fluorogenic substrate (Cytovia, Inc.; WO99/18856), 20% sucrose (Sigma), 20 mM DTT (Sigma), 200 mM NaCI (Sigma), 40 mM Na PIPES buffer pH 7.2 (Sigma), and 500 μg/mL lysolecithin (Calbiochem) was added. The samples were mixed by agitation and incubated at room temperature. Using a fluorescent plate reader (Model SPECTRAfluor Plus, Tecan), an initial reading (T=0) was made approximately 1-2 min after addition of the substrate solution, employing excitation at 485 nm and emission at 530 nm, to determine the background fluorescence of the control sample. After the 3 h incubation, the samples were read for fluorescence as above (T=3 h).
(§2) The Relative Fluorescence Unit values (RFU) were used to calculate the sample readings as follows: RFU(T=3h)-Control RFU(T=0)=Net RFU(T=3h)
(§3) The activity of caspase cascade activation was determined by the ratio of the net RFU value for N-(4-methoxyphenyl)-N,2-dimethylthieno[3,2-d]pyrimidin-4-amine or other test compound to that of control samples. The EC50 (nM) was determined by a sigmoidal dose-response calculation (Prism 3.0, GraphPad Software Inc.).

For experiment [2], the system named is human breast cancer cell line T-47D. Description: Caspase cascade activation (DEVD-R110 fluorogenic substrate) in T-47D cells. Particulars: 24 h, read-out: Caspase Activation Potency EC50 (nM) (24 h) T-47D. As for the experimental part: as §1, §2, §3
Experiment [3] concerns human hepatocellular carcinoma cell line SNU398. Description: Caspase cascade activation (DEVD-R110 fluorogenic substrate) in SNU398 cells. The conditions noted are these: SNU398, 24 h, read-out: Caspase Activation Potency EC50 (nM) (24 h) SNU398. The procedure:
as §1, §2, §3
Several compounds were also tested in other cancer cells lines (48 h assay), including human hepatocellular carcinoma cell line SNU398, human colon carcinoma cell line […], human B cell lymphoblastoid cell line Ramos, human Burkitt's lymphoma cell line Namalwa, and cervical cancer cell line HeLa, and the data are summarized in Table II.

Turning to `Cc1cc(N(C)c2ncnc3ccsc23)no1` [Example 17, N-Methyl-N-(5-methylisoxazol-3-yl)thieno[3,2-d]pyrimidin-4-amine], the EC50 in experiment [1] (Homo sapiens, NCI-H1299, 24 h) is > 10000 nM; in experiment [2] (Homo sapiens, T47D), > 10000 nM.

Regarding `COc1ccc(N(C)c2nc(-c3ccccc3)nc3ccsc23)cc1` [Example 19, N-(4-Methoxyphenyl)-N-methyl-2-phenylthieno[3,2-d]pyri idin-4-amine hydrochloride], the EC50 in experiment [1] (H1299, 24 h) stood at 615 nM; in experiment [2] it was 337 nM.

As for `COc1ccc(N(C)c2ncnc3sc(C)cc23)cc1` [Example 18, N-(4-Methoxy-phenyl)-N,6-dimethylthieno[2,3-d]pyrimidin-4-amine hydrochloride], the EC50 is 184 nM in experiment [1] (Homo sapiens, NCI-H1299, 24 h) and 125 nM in experiment [2] (Homo sapiens, T47D).

In the case of `COC(=O)c1ccc(N(C)c2ncnc3ccsc23)cc1` [Example 22, N-(4-Methoxycarbonylphenyl)-N-methylthieno[3,2-d]pyrimidin-4-amine hydrochloride], the concentration for a half-maximal effect (EC50) turned out to be 327 nM in experiment [1] (Homo sapiens, NCI-H1299, 24 h) and 185 nM in experiment [2] (Homo sapiens, T47D).

Take `COc1ccc(N(C)c2ncnc3cc(-c4cccnc4)sc23)cc1` [Example 8, N-(4-Methoxyphenyl)-N-methyl-6-(pyridin-3-yl)thieno[3,2-d]pyrimidin-4-amine]: the EC50 in experiment [1] (Homo sapiens, NCI-H1299, 24 h) is > 10000 nM; in experiment [2] (Homo sapiens, T47D), > 10000 nM.

In the case of `COc1ccc(N(C)c2nc(C)nc3c(C)csc23)cc1` [Example 3, N-(4-Methoxyphenyl)-N,2,7-trimethylthieno[3,2-d]pyrimidin-4-amine], the EC50 in experiment [1] (Homo sapiens, NCI-H1299, 24 h) came out at 281 nM; in experiment [2] (Homo sapiens, T47D), 233 nM.

Take `COc1cc(OC)cc(N(C)c2ncnc3ccsc23)c1` [Example 28, N-(3,5-dimethoxyphenyl)-N-methylthieno[3,2-d]pyrimidin-4-amine]: the EC50 in experiment [1] (Homo sapiens, NCI-H1299, 24 h) is > 10000 nM; in experiment [2] (Homo sapiens, T47D), > 10000 nM.

For the compound `COc1ccccc1N(C)c1ncnc2ccsc12` [Example 25, N-(2-Methoxyphenyl)-N-methylthieno[3,2-d]pyrimidin-4-amine], the concentration for a half-maximal effect (EC50) was > 10000 nM in experiment [1] (Homo sapiens, NCI-H1299, 24 h) and > 10000 nM in experiment [2] (Homo sapiens, T47D).

With `COc1ccc(N(C)c2ncnc3cc(I)sc23)cc1` [Example 7, 6-Iodo-N-(4-methoxyphenyl)-N-methylthieno[3,2-d]pyrimidin-4-amine], the concentration giving a half-maximal response (EC50) in experiment [1] (Homo sapiens, NCI-H1299, 24 h) was > 10000 nM; in experiment [2] (Homo sapiens, T47D) it was > 10000 nM.

Take `COc1cccc(N(C)c2ncnc3ccsc23)c1` [Example 27, N-(3-methoxyphenyl)-N-methylthieno[3,2-d]pyrimidin-4-amine]: the 50% effective concentration (EC50) in experiment [1] (Homo sapiens, NCI-H1299, 24 h) is > 10000 nM; in experiment [2] (Homo sapiens, T47D), > 10000 nM.

On to `COc1ccc(Nc2ncnc3ccsc23)cc1` [Example 14, N-(4-Methoxyphenyl)-thieno[3,2-d]pyrimidin-4-amine hydrochloride], for which the concentration for a half-maximal effect (EC50) in experiment [1] (Homo sapiens, NCI-H1299, 24 h) was > 10000 nM; in experiment [2] (Homo sapiens, T47D), > 10000 nM.

Turning to `COc1ccc(OC)c(N(C)c2ncnc3ccsc23)c1` [Example 21, N-(2,5 -Dimethoxyphenyl)-N-methylthieno[3,2-d]pyrimidin-4-amin], the concentration for a half-maximal effect (EC50) in experiment [1] (Homo sapiens, NCI-H1299, 24 h) amounted to 4940 nM; in experiment [2] (Homo sapiens, T47D) it was 2500 nM.

With `COc1ccc(Nc2nc(C)nc3scc(C)c23)cc1` [Example 13, N-(4-Methoxyphenyl)-2,5-dimethylthieno[2,3-d]pyrimidin-4-amine hydrochloride], the EC50 in experiment [1] (Homo sapiens, NCI-H1299, 24 h) was > 10000 nM; in experiment [2] (Homo sapiens, T47D) it was > 10000 nM.

For the compound `COc1ccc(N(C)c2ncnc3scc(C)c23)cc1` [Example 12, N-(4-Methoxyphenyl)-N,5-dimethylthieno[2,3-d]pyrimidin-4-amine], the concentration for a half-maximal effect (EC50) in experiment [1] (Homo sapiens, NCI-H1299, 24 h) stood at 19 nM; in experiment [3] (Homo sapiens, SNU-398), 15 nM; in experiment [2] (Homo sapiens, T47D) it was 12 nM.

In the case of `COc1ccc(N(C)c2ncnc3sccc23)cc1` [Example 9, N-(4-Methoxyphenyl)-N-methylthieno[2,3-d]pynimidin-4-amine], the concentration for a half-maximal effect (EC50) in experiment [1] (H1299, 24 h) was found to be 41 nM; in experiment [3] it was 57 nM; in experiment [2], 19 nM.

With `COc1ccc(N(C)c2ncnc3ccsc23)cc1OC` [Example 26, N-(3,4-Dimethoxyphenyl)-N-methylthieno[3,2-d]pyrimidin-4-amine], the EC50 in experiment [1] (Homo sapiens, NCI-H1299, 24 h) came out at 2620 nM; in experiment [2] (Homo sapiens, T47D), 1630 nM.

On to `COc1ccc(N(C)c2ncnc3sc(C)c(C)c23)cc1` [Example 23, N-(4-Methoxyphenyl)-N,5,6-trimethylthieno[2,3-d]pyrimidin-4-amine], for which the concentration giving a half-maximal response (EC50) in experiment [1] (Homo sapiens, NCI-H1299, 24 h) came out at 51 nM; in experiment [3] (Homo sapiens, SNU-398) it was 30 nM; in experiment [2] (Homo sapiens, T47D), 19 nM.

`COc1ccc(N(C)c2nc(SC)nc3ccsc23)cc1` [Example 20, N-(4-Methoxyphenyl)-N-methyl-2-(methylthio)thieno[3,2-d]pyrimidin-4-amine hydrochloride]: the EC50 in experiment [1] (Homo sapiens, NCI-H1299, 24 h) was found to be 28 nM; in experiment [3] (Homo sapiens, SNU-398) it was 81 nM; in experiment [2] (Homo sapiens, T47D), 36 nM.

Turning to `COc1ccc(OC)c(N(C)c2nc(C)nc3ccsc23)c1` [Example 16, N-(2,5-Dimethoxyphenyl)-N,2-dimethylthieno[3,2-d]pyrimidin-4-amine], the EC50 in experiment [1] (Homo sapiens, NCI-H1299, 24 h) was > 10000 nM; in experiment [2] (Homo sapiens, T47D), > 10000 nM.

Turning to `COc1ccc(Nc2ncnc3scc(C)c23)cc1` [Example 11, N-(4-Methoxyphenyl)-5-methylthieno[2,3-d]pyrimidin-4-amine], the concentration giving a half-maximal response (EC50) in experiment [1] (Homo sapiens, NCI-H1299, 24 h) is > 10000 nM; in experiment [2] (Homo sapiens, T47D), > 10000 nM.

As to `COc1ccc(N(C)c2ncnc3c(C)csc23)cc1` [Example 10, N-(4-Methoxyphenyl)-N,7-dimethylthieno[3,2-d]pyrimidin-4-amine], the half-maximal effective concentration (EC50) in experiment [1] (Homo sapiens, NCI-H1299, 24 h) is 525 nM; in experiment [2] (Homo sapiens, T47D) it was 518 nM.
